Calls of active or inactive are those of the source. The rule behind the calls is not given here.
Legend:
[1] = Antiproliferative activity against KBV1cells; format: functional, cell-based; details: Homo sapiens, KB-V1
[2] = Antiproliferative activity against KB8.5 cells; format: functional, cell-based; details: Homo sapiens
KB [3] = assay: Ratio of IC50 for KB8.5 cells to IC50 for KB cells; format: functional, Homo sapiens
COLO 205 = assay: Cytotoxicity against COLO205 cells; format: functional, cell-based; details: Homo sapiens
Tubulin (Homo sapiens) [4] = target: T1, Tubulin (Homo sapiens) (UniProt P68371+Q9H4B7+P0DPH7+P68366+Q13509+Q71U36+P04350+Q3ZCM7+P07437+P68363+Q9BQE3+Q6PEY2+Q13885+Q9BVA1+Q9BUF5); assay: Stimulation of MAP-rich tubulin polymerization; format: protein-complex assay
Tubulin (Homo sapiens) [5] = target: T1, Tubulin (Homo sapiens); assay: Stimulation of tubulin polymerization; format: protein-complex assay
[6] = Stability in nude mouse microsomes after 30 mins; format: ADME, Microsome; details: read-out: Stability
[7] = Solubility in water at pH 7.4; format: physicochemical
KB [8] = assay: Antiproliferative activity against KB cells; format: functional, cell-based; details: Homo sapiens
[9] = Ratio of IC50 for KB V1 cells to IC50 for KB cells

Compound	IC50 [1]	IC50 [2]	Ratio IC50 (KB [3])	IC50 (COLO 205)	other results
CC(=O)O[C@H]1C(=O)[C@@]2(C)[C@H]([C@H](OC(=O)c3ccccc3)[C@]3(O)C[C@H](OC(=O)[C@H](O)[C@@H](NC(=O)c4ccccc4)c4ccccc4)C(C)=C1C3(C)C)[C@]1(OC(C)=O)CO[C@@H]1C[C@@H]2O [PACLITAXEL]	2010 nM	–	–	–	–
CNCCCOc1cc(F)c(-c2c(Cl)nc3ncnn3c2N[C@@H](C)C(F)(F)F)c(F)c1.Cl	–	67 nM	2.9	–	–
C=CCN(C#N)c1nc(Cl)c(-c2c(F)cc(F)cc2F)c(NCC(F)(F)F)n1	–	–	–	477 nM	–
CN(C)CCCOc1cc(F)c(-c2c(Cl)nc(N(C)C#N)nc2NCC(F)(F)F)c(F)c1	–	–	–	52 nM	–
CN(C)CCCCOc1cc(F)c(-c2c(Cl)nc(N(C)C#N)nc2NCC(F)(F)F)c(F)c1	–	–	–	229 nM	–
CCN(C#N)c1nc(Cl)c(-c2c(F)cc(F)cc2F)c(NCC(F)(F)F)n1	–	–	–	304 nM	–
CN(C#N)c1nc(Cl)c(-c2c(F)cc(F)cc2F)c(NCC(F)(F)F)n1	–	–	–	214 nM	–
C[C@H](Nc1nc(N(C)C#N)nc(Cl)c1-c1c(F)cc(OCCCN(C)C)cc1F)C(F)(F)F	82 nM	59 nM	2.5	36 nM	Activity (Tubulin (Homo sapiens) [4]): Active; Activity (Tubulin (Homo sapiens) [5]): Active; remaining at 0.5 h [6]: 92%; solubility [7]: > 100 µg/mL; IC50 (KB [8]): 24 nM; Ratio IC50 [9]: 3.5
CN(C)CCOc1cc(F)c(-c2c(Cl)nc(N(C)C#N)nc2NCC(F)(F)F)c(F)c1	–	–	–	532 nM	–
CC[C@]1(O)C[C@H]2CN(CCc3c([nH]c4ccccc34)[C@@](C(=O)OC)(c3cc4c(cc3OC)N(C=O)[C@H]3[C@@](O)(C(=O)OC)[C@H](OC(C)=O)[C@]5(CC)C=CCN6CC[C@]43[C@@H]65)C2)C1 [VINCRISTINE]	2040 nM	58 nM	26	–	Ratio IC50 [9]: 925

— ChEMBL document CHEMBL1144649, “2-cyanoaminopyrimidines as a class of antitumor agents that promote tubulin polymerization” (Bioorg Med Chem Lett, 2007)
